Experimental data from patent publication US20140005163A1 (NOVARTIS AG, priority 2010, published 2014).
Converted amounts (≈) assume the structure as drawn. Read-outs that look alike come from different tables or passages of the source.

Key:
PI3K beta = target: T1, PI3K beta (Homo sapiens, UniProt P42338); assay: PI3K beta kinase assay (Kinase-Glo luminescence); format: biochemical
T1 construct: for the full-length p110-b subunit are generated and fused by overlapping PCR; p85(iSH2) fusion partner (see partner chain) (N); His tag (C); made in house; host or cells: baculovirus; Tn5 (Trichoplusia ni) or TiniPro insect cells
T1 sequence (P42338 with tags, fused parts or gaps limits assumed): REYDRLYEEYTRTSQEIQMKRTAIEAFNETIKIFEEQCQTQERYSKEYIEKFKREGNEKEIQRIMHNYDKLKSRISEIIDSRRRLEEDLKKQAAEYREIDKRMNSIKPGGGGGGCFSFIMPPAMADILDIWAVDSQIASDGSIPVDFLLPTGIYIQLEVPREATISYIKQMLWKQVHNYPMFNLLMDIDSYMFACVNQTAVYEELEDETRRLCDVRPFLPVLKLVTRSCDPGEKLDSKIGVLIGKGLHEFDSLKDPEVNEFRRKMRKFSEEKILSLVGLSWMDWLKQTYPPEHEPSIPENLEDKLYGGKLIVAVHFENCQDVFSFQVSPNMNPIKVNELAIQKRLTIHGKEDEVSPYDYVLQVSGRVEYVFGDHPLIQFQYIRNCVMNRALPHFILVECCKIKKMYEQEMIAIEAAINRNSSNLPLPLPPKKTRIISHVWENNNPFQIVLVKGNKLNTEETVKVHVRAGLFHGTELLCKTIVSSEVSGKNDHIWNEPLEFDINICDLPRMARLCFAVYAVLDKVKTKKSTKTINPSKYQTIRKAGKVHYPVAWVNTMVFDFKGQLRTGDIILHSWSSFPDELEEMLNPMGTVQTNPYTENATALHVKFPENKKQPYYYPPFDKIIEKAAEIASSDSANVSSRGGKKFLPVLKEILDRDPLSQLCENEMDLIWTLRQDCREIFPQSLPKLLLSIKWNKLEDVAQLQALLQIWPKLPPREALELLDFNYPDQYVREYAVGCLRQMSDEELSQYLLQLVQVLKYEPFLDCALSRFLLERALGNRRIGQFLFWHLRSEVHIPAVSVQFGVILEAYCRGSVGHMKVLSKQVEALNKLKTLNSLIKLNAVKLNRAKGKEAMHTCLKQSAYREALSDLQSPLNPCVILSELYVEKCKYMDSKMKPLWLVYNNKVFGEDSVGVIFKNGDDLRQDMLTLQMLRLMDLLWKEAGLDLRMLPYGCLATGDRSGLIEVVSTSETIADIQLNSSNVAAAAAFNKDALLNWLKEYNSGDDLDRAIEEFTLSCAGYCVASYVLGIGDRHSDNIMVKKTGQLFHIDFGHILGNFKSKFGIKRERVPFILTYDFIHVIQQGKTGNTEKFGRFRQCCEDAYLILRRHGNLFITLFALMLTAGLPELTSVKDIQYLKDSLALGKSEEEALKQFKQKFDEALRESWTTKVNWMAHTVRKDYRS
Procedure, shortened: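 p110β full-length/p85 iSH2 construct (BV-949), 25 nM, with 1 μM ATP and 10 μg/mL phosphatidylinositol in 10 mM Tris pH 7.5, 3 mM MgCl2, 50 mM NaCl, 0.05% CHAPS, 1 mM DTT. 60 min at room temperature; ATP remaining read by Kinase-Glo luminescence. IC50 from 8-point four-parameter logistic fit.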

[1] = system: PKB Ser473 phosphorylation in Rat1-myr-HA-p110 delta cells; assay: Reverse protein array assay, PKB Ser473 phosphorylation in Rat1-myr-p110 delta cells; format: cell-based; conditions: read-out: p-PKB IC50
Procedure, shortened: (§1)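 Lysates were arrayed at four dilutions, and phospho-PKB Ser473 was quantified by relative fluorescence signal. They came from Rat1-myr-HA-p110 alpha, beta or delta cells exposed for 30 min at 37 °C to an 8-point compound series with 0.2% DMSO constant.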

[2] = system: PKB Ser473 phosphorylation in Rat1-myr-HA-p110 beta cells; assay: Reverse protein array assay, PKB Ser473 phosphorylation in Rat1-myr-p110 beta cells; format: cell-based; conditions: 0.5 h, pAkt Ser473, 30 minutes incubation, read-out: p-PKB IC50
Procedure, shortened: as §1

[3] = system: PKB Ser473 phosphorylation in Rat1-myr-HA-p110 alpha cells; assay: Reverse protein array assay, PKB Ser473 phosphorylation in Rat1-myr-p110 alpha cells; format: cell-based; conditions: 0.5 h, pAkt Ser473, 30 minutes compound incubation, read-out: p-PKB IC50
Procedure, shortened: as §1

PI3K delta = target: T2, PI3K delta (Homo sapiens, UniProt O00329); assay: PI3K delta kinase assay (Kinase-Glo luminescence); format: biochemical
T2 construct: for the full-length p110-d subunit are generated and fused by overlapping PCR; p85(iSH2) fusion partner (see partner chain) (N); His tag (C); made in house; host or cells: baculovirus; Tn5 (Trichoplusia ni) or TiniPro insect cells
T2 sequence (O00329 with tags, fused parts or gaps limits assumed): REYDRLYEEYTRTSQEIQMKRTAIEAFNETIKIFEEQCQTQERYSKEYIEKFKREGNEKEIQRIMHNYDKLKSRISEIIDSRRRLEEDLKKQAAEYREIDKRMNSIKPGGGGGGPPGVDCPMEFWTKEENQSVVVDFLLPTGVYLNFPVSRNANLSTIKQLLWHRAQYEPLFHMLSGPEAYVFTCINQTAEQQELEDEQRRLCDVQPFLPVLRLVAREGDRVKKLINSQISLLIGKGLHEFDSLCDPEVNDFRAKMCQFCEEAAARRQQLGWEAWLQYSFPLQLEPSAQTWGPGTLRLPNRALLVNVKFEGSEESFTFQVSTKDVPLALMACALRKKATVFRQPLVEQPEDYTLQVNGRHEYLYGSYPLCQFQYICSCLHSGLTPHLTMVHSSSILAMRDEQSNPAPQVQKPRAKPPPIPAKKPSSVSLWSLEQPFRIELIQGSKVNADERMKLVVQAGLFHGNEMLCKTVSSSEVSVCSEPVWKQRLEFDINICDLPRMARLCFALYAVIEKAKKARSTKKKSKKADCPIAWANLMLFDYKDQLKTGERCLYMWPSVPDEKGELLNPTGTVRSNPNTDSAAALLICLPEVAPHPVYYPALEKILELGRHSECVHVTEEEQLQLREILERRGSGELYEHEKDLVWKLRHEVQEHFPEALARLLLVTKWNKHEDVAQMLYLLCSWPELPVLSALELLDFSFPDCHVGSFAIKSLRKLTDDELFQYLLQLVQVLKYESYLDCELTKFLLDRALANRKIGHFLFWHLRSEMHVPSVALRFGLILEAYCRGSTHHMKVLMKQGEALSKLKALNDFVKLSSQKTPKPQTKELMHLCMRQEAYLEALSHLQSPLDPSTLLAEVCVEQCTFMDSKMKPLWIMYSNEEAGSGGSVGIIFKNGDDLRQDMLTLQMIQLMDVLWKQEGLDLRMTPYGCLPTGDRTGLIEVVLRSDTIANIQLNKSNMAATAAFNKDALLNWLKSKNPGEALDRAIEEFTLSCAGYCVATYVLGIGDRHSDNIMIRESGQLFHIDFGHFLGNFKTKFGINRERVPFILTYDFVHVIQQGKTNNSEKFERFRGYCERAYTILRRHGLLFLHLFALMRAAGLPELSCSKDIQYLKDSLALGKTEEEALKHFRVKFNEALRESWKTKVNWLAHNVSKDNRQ
Procedure, shortened: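 Inhibition is derived from luminescent detection of unconsumed ATP. The reaction runs for one hour at ambient temperature and contains the δ isoform fusion protein, phosphatidylinositol substrate and low (1 μM) ATP. Eight compound concentrations are tested in single, and a 4-parameter logistic model is used to calculate IC50.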

PI3K alpha = target: T3, PI3K alpha (Homo sapiens, UniProt P42336); assay: PI3K alpha kinase assay (Kinase-Glo luminescence); format: biochemical
T3 construct: p85(iSH2) fusion partner (see partner chain) (N); His tag (C); made in house; host or cells: baculovirus; Tn5 (Trichoplusia ni) or TiniPro insect cells
T3 sequence (P42336 with tags, fused parts or gaps limits assumed): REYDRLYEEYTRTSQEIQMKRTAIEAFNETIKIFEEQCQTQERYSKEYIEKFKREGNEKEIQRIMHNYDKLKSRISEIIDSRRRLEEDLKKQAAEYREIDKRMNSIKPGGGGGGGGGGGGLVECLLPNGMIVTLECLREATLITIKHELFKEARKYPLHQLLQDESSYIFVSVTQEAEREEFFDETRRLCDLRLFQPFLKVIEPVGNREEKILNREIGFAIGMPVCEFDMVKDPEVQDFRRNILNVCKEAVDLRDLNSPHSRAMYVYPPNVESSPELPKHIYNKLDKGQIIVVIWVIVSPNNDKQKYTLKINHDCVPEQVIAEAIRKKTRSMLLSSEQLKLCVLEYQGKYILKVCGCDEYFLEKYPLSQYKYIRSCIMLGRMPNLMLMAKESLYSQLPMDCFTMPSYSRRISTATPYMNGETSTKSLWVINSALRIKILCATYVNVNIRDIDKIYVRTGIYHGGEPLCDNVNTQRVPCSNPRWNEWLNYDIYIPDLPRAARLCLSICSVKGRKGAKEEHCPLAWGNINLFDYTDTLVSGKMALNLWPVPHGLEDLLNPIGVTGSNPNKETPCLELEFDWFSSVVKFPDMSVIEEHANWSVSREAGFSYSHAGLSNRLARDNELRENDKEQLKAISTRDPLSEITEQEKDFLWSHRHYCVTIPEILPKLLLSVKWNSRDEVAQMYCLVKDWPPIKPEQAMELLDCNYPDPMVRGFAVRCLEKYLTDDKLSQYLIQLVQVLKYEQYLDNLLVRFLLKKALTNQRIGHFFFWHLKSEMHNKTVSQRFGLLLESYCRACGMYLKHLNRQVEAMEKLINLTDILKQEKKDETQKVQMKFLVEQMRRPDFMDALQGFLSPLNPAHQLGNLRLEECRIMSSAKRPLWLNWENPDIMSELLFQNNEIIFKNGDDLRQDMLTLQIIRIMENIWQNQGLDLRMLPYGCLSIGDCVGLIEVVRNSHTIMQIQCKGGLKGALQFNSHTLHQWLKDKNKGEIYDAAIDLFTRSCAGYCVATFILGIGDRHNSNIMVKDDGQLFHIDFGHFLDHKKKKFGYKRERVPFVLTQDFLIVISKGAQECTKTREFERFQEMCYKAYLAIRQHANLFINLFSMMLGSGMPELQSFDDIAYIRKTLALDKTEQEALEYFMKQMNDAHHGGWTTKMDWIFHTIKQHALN
Procedure, shortened: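 Luminescent ATP-depletion assay (Kinase-Glo) with 10 nM PI3Kα and 10 μg/mL phosphatidylinositol as lipid substrate at 1 μM ATP. Incubation lasts 60 min at room temperature.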

PI3K gamma = target: T4, PI3K gamma (Homo sapiens, UniProt P48736); assay: PI3K gamma kinase assay (Kinase-Glo luminescence); format: biochemical
T4 construct: His tag (C); made in house; host or cells: baculovirus (pVL1393); Tn5 or TiniPro insect cells; construct from Roger Williams lab, MRC LMB
T4 sequence (P48736 144-1102 limits assumed): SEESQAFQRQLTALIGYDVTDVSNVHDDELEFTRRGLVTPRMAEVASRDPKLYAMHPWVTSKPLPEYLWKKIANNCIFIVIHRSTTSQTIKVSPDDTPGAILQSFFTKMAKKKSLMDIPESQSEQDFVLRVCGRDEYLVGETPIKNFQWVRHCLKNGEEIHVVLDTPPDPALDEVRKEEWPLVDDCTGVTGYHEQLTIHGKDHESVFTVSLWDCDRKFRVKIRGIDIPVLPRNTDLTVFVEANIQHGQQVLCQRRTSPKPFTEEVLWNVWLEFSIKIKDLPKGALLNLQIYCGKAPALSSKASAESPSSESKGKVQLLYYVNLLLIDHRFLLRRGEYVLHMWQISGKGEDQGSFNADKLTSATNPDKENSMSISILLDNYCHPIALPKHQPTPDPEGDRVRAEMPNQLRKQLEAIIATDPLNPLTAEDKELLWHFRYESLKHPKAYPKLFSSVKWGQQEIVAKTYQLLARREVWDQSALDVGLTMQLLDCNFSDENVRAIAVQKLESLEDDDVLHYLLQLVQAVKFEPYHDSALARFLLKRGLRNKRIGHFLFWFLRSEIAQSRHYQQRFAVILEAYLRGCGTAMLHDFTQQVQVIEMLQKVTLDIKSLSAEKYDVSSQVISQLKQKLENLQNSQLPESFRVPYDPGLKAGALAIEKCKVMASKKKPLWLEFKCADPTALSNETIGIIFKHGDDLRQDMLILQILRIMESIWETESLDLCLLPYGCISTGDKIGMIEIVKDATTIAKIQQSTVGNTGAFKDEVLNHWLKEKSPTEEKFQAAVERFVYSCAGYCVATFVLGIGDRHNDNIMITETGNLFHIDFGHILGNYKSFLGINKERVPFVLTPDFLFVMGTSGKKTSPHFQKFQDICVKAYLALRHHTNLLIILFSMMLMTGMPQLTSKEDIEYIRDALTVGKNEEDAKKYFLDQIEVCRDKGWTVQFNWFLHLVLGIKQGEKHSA
Experimental: In a more preferred assay, the kinase reaction is performed in a final volume of 10 μL per well of a low volume non binding CORNING, 384 well black plate (Cat. No. #3676). The final concentrations of ATP and phosphatidyl inositol (PI) in the assay are 1 μM and 10 μg/mL respectively. The reaction is started by the addition of ATP.
The components of the assay are added per well as follows:
[…] in 90% DMSO per well, in columns 1-20, 8 concentrations (1/3 and 1/3.33 serial dilution step) in single. • Low control: […] of 90% DMSO in half the wells of columns 23-24 (0.45% in final). • High control: […] of reference compound (e.g. compound of Example 7 in WO 2006/122806) in the other half of columns 23-24 (2.5 μM in final). • Standard: […] of reference compound as just mentioned diluted as the test compounds in columns 21-22 • 20 mL ‘buffer’ are prepared per assay: • 200 μL of 1M TRIS HCl pH7.5 (10 mM in final) • 60 μL of 1M MgCl2 (3 mM in final) • 500 μL of 2M NaCl (50 mM in final) • 100 μL of 10% CHAPS (0.05% in final) • 200 μL of 100 mM DTT (1 mM in final) • 18.94 mL of nanopure water • 10 mL ‘PI’ are prepared per assay: • 200 μL of 1 mg/ml L-alpha-Phosphatidylinositol (Liver Bovine, Avanti Polar Lipids Cat. No. 840042C MW=909.12) prepared in 3% OctylGlucoside (10 μg/ml in final) • 9.8 mL of ‘buffer’ • 10 mL ‘ATP’ are prepared per assay: • 6.7 μL of 3 mM stock of ATP giving a final concentration of 1 μM per well • 10 mL of ‘buffer’ • 2.5 mL of each PI3K construct are prepared per assay in ‘PI’ with the following final concentration: • 10 nM PI3K alfa EMV B1075 • 25 nM beta EMV BV949 • 10 nM delta EMV BV1060 • 150 nM gamma EMV BV950 • 5 μL of ‘PI/PI3K’ are added per well. • 5 μl ‘ATP’ are added per well to start the reaction. • The plates are then incubated at room temperature for 60 minutes (alfa, beta, delta) or 120 minutes (gamma). • The reaction is terminated by the addition of 10 μL Kinase-Glo (Promega Cat. No. #6714). • The assay plates are read after 10 minutes in Synergy 2 reader (BioTek, Vermont USA) with an integration time of 100 milliseconds and sensitivity set to 191. • Output: The High control is around 60'000 counts and the Low control is 30'000 or lower • This luminescence assay gives a useful Z′ ratio between 0.4 and 0.7
IC50 is determined by a four parameter curve fitting routine that comes along with “excel fit”. […] Alternatively, IC50 values are calculated using idbsXLfit model 204, which is a 4 parameter logistic model.

Solubility at pH 6.8 = format: physicochemical
Procedure, shortened: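 Solubility was measured at pH 6.8 following the cited Zhou et al. (2007) procedure.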

mTOR = target: T5, mTOR (Homo sapiens, UniProt P42345); assay: Biochemical assay for m-TOR by TR-FRET; conditions: 8 μM ATP, 400 nM GFP-4EBP1, 0.5 nM mTOR
T5 construct: purchased Invitrogen Corporation (Carlsbad/CA, USA) PV4753
Procedure, shortened: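 mTOR (0.5 nM) was incubated at rt with ATP (8 μM final) and GFP-4EBP1 (400 nM final) in 50 mM HEPES pH 7.5, 10 mM MnCl2, 50 mM NaCl, 1 mM EGTA, 1 mM DTT. EDTA stop with Tb3+-anti-p4EBP1 [pThr46] antibody (0.5 nM); TR-FRET read 15 min later.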

[4] = pH 6.8, aqueous buffer, thermodynamic from solid, read-out: solubility

Row | IC50 (PI3K beta) [nM] | IC50 [1] [nM] | IC50 [2] [nM] | IC50 [3] [nM] | IC50 (PI3K delta) [nM] | IC50 (PI3K alpha) [nM] | IC50 (PI3K gamma) [nM] | solubility (Solubility at pH 6.8; [4]) [µg/mL] | solubility (Solubility at pH 6.8; pH 6.8) [µg/mL] | IC50 (mTOR) [nM] | SMILES
1 | 152 | 249 | 147 | 82 | 169 | 59 | 120 | 6 (≈ 14 µM) | – | – | COc1ccc(-c2ccc3ncc4c(c3c2)n(-c2c(C)cnn2C)c(=O)n4C)cc1OC [Example 1.7, 8-(3,4-Dimethoxy-phenyl)-1-(2,4-dimethyl-2H-pyrazol-3-yl)-3-methyl-1,3-dihydro-imidazo[4,5-c]quinolin-2-one]
2 | 241 | 946 | 795 | 552 | 432 | 94 | 140 | 8 (≈ 20 µM) | – | – | COc1ccc(-c2ccc3ncc4c(c3c2)n(-c2c(C)cnn2C)c(=O)n4C)cn1 [Example 2.1, 1-(2,4-Dimethyl-2H-pyrazol-3-yl)-8-(6-methoxy-pyridin-3-yl)-3-methyl-1,3-dihydro-imidazo[4,5-c]quinolin-2-one]
3 | 799 | 1630 | 937 | 594 | 292 | 136 | 273 | > 384 | – | – | Cc1nn(C)c(C)c1-n1c(=O)n(C)c2cnc3ccc(-c4cccnc4)cc3c21 [Example 10.1, 3-Methyl-8-pyridin-3-yl-1-(1,3,5-trimethyl-1H-pyrazol-4-yl)-1,3-dihydro-imidazo[4,5-c]quinolin-2-one]
4 | – | – | – | – | 465 | 250 | 335 | 355 (≈ 926 µM) | – | – | Cc1nn(C)c(C)c1-n1c(=O)n(C)c2cnc3ccc(-c4ccccc4)cc3c21 [Example 37.2, 3-Methyl-8-phenyl-1-(1,3,5-trimethyl-1H-pyrazol-4-yl)-1,3-dihydro-imidazo[4,5-c]quinolin-2-one]
5 | – | – | – | – | – | – | 760 | – | 2 (≈ 4.54 µM) | – | Cc1nn(C)cc1-n1c(=O)n(C)c2cnc3ccc(-c4ccc(C(=O)N(C)C)cc4)cc3c21 [Example 48, 4-[1-(1,3-Dimethyl-1H-pyrazol-4-yl)-3-methyl-2-oxo-2,3-dihydro-1H-imidazo[4,5-c]quinolin-8-yl]-N,N-dimethyl-benzamide]
6 | 843 | 672 | 634 | 375 | 93 | 94 | 183 | 40 (≈ 81.5 µM) | – | – | Cc1nn(C)c(C)c1-n1c(=O)n(C)c2cnc3ccc(-c4cccc(S(=O)(=O)N(C)C)c4)cc3c21 [Example 53.2, N,N-Dimethyl-3-[3-methyl-2-oxo-1-(1,3,5-trimethyl-1H-pyrazol-4-yl)-2,3-dihydro-1H-imidazo[4,5-c]quinolin-8-yl]-benzenesulfonamide]
7 | 228 | – | – | 304 | 129 | 82 | 257 | 300 (≈ 700 µM) | – | – | CCOc1cncc(-c2ccc3ncc4c(c3c2)n(-c2c(C)nn(C)c2C)c(=O)n4C)c1 [Example 56.3, 8-(5-Ethoxy-pyridin-3-yl)-3-methyl-1-(1,3,5-trimethyl-1H-pyrazol-4-yl)-1,3-dihydro-imidazo[4,5-c]quinolin-2-one]
8 | – | – | 308 | 208 | 800 | 148 | 851 | 128 (≈ 345 µM) | – | – | Cc1nn(C)cc1-n1c(=O)n(C)c2cnc3ccc(-c4cnccn4)cc3c21 [Example 115, 1-(1,3-Dimethyl-1H-pyrazol-4-yl)-3-methyl-8-pyrazin-2-yl-1,3-dihydro-imidazo[4,5-c]quinolin-2-one]
9 | – | – | – | – | – | 446 | 173 | 65 (≈ 148 µM) | – | 232 | Cc1nn(C)cc1-n1c(=O)n(C)c2cnc3ccc(-c4ccc(-c5nn[nH]n5)nc4)cc3c21 [Example 123, 1-(1,3-Dimethyl-1H-pyrazol-4-yl)-3-methyl-8-[6-(2H-tetrazol-5-yl)-pyridin-3-yl]-1,3-dihydro-imidazo[4,5-c]quinolin-2-one]
